Data reported in PubChem BioAssay (NCI).
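Exposure lasted 48 hours, with cells grown in 96-well plates and compounds tested at five concentrations. GI50 marks 50% less growth. At the TGI there is no net growth.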

How the values were obtained:
Assay in all cases: growth of human tumour cells (NCI), 48 h
DU-145 prostate = system: DU-145 prostate
SNB-19 CNS = system: SNB-19 CNS
CCRF-CEM leukemia = system: CCRF-CEM leukemia
UO-31 renal = system: UO-31 renal
MCF7 breast = system: MCF7 breast
EKVX NSCLC = system: EKVX NSCLC
SF-268 CNS = system: SF-268 CNS
K-562 leukemia = system: K-562 leukemia
NCI-H522 lung = system: NCI-H522 lung
OVCAR-4 ovarian = system: OVCAR-4 ovarian

c1nc(N2CC2)c2cnn(C3CCCCO3)c2n1 (stereo not given) showed a TGI (DU-145 prostate) greater than 100 µM, a TGI (SNB-19 CNS) greater than 100 µM and a TGI (CCRF-CEM leukemia) greater than 100 µM. It also gave a TGI (UO-31 renal) greater than 100 µM, a TGI (MCF7 breast) greater than 100 µM and a TGI (EKVX NSCLC) greater than 100 µM. For the same compound, the TGI (SF-268 CNS) was greater than 100 µM, the TGI (K-562 leukemia) was greater than 100 µM and the TGI (NCI-H522 lung) was greater than 100 µM. The TGI (OVCAR-4 ovarian) was greater than 100 µM.

In the case of OCCCNc1nc(=S)[nH]c2[nH]ncc12, the GI50 (DU-145 prostate) is reported as 41.3 µM, the TGI (DU-145 prostate) is reported as greater than 100 µM and the GI50 (SNB-19 CNS) is reported as greater than 100 µM. The TGI (SNB-19 CNS) was greater than 100 µM, the GI50 (CCRF-CEM leukemia) was 34.7 µM and the TGI (CCRF-CEM leukemia) was greater than 100 µM. The GI50 (UO-31 renal) was 44.1 µM, the TGI (UO-31 renal) was greater than 100 µM and the GI50 (MCF7 breast) was 29.8 µM. The TGI (MCF7 breast) was 81.3 µM, the GI50 (EKVX NSCLC) was 50.7 µM and the TGI (EKVX NSCLC) was greater than 100 µM. For the same compound, the GI50 (SF-268 CNS) was 32.7 µM, the TGI (SF-268 CNS) was 92.2 µM and the GI50 (K-562 leukemia) was 44.5 µM. The TGI (K-562 leukemia) was greater than 100 µM, the GI50 (NCI-H522 lung) was 26.1 µM and the TGI (NCI-H522 lung) was greater than 100 µM. It also gave a GI50 (OVCAR-4 ovarian) of 53.7 µM and a TGI (OVCAR-4 ovarian) greater than 100 µM.

In the case of CCOC(=O)NC(=O)c1cn(CCNCCO)c(=O)[nH]c1=O, the TGI (SNB-19 CNS) is reported as greater than 100 µM, the TGI (CCRF-CEM leukemia) is reported as greater than 100 µM and the TGI (EKVX NSCLC) is reported as greater than 100 µM. For the same compound, the TGI (SF-268 CNS) was greater than 100 µM, the TGI (K-562 leukemia) was greater than 100 µM and the TGI (NCI-H522 lung) was greater than 100 µM. For the same compound, the TGI (OVCAR-4 ovarian) was greater than 100 µM.

CCN(CCO)C(=O)C1(c2ccccc2)CCCCC1 showed a TGI (DU-145 prostate) greater than 10 µM, a TGI (SNB-19 CNS) greater than 10 µM and a TGI (CCRF-CEM leukemia) greater than 10 µM. The TGI (UO-31 renal) was greater than 10 µM, the TGI (MCF7 breast) was greater than 10 µM and the TGI (EKVX NSCLC) was greater than 10 µM. The TGI (SF-268 CNS) was greater than 10 µM, the TGI (K-562 leukemia) was greater than 10 µM and the TGI (NCI-H522 lung) was greater than 10 µM. It also gave a TGI (OVCAR-4 ovarian) greater than 10 µM.

With COc1ccc(CC2CCc3nc(N)nc(N)c3C2)cc1OC (stereo not given) the TGI (SNB-19 CNS) was greater than 89 µM, the TGI (UO-31 renal) was greater than 100 µM and the TGI (MCF7 breast) was greater than 44.4 µM. It also gave a TGI (EKVX NSCLC) greater than 91.2 µM, a TGI (SF-268 CNS) greater than 29 µM and a TGI (K-562 leukemia) greater than 100 µM. The TGI (NCI-H522 lung) was 12.6 µM and the TGI (OVCAR-4 ovarian) was greater than 100 µM.
